Experimental data as given in publication PMC11266932, “Enhanced absorption of prenylated cinnamic acid derivatives from Brazilian green propolis by turmeric in humans and rats” (Food Science & Nutrition, 2024).
Like-named read-outs stand apart in the source and are kept apart here.

Tests used:
[1] = Clinical trial: plasma concentration and AUC of cinnamic acid derivatives after ingestion of BGP alone or BGP plus herbal extract mixture; assay type: in vivo; conditions: humans, BGP and herbal extracts co-administered; for AUC: plasma 0–24 h, after enzymatic deconjugation, mean ± SD, n = 6; for fold increase of AUC versus BGP administered alone: 0–24 h
Experimental: Six volunteers (three males and three females) completely understood the study protocol and consented to participate in the research. The following exclusion criteria were used for shortlisting participants: past or present medical history (asthma, significant allergies, heart, liver, kidney, and urinary tract disease); prescribed medication; pregnancy; smoking (>20 cigarettes/day); alcohol consumption (>500 mL/day of beer); use of dietary supplements and healthy foods; and participation in other clinical trials. The participants were instructed to refrain from consuming propolis and propolis‐containing foods and beverages during the study period and 1 week prior to the start of the study. After a 12‐h fast, the participants were given a test food comprising the encapsulated BGP powder or a mixture of the BGP powder and herbal extracts in two experimental periods separated by 1 week. […] The collected samples were centrifuged at 1500 g for 3 min at 23 ± 2°C to separate the plasma, which was subsequently preserved at −80°C until further sample preparation.
(§1) Briefly, 50 μL of plasma was treated with a sulfatase/β‐glucuronidase solution (sulfatase 15 units/sample) in 100 mM sodium acetate and 5 mM ascorbate at 37°C for 1 h. Following the incubation, 850 μL of methanol was added to the samples to stop the deconjugation reaction, after which centrifugation was performed at 2000 g for 10 min at 23 ± 2°C. The supernatant was evaporated under nitrogen gas and then reconstituted in a fixed volume of methanol. The samples were filtered through a 0.22 μm PTFE membrane and then analyzed by LC–MS/MS.
(§2) Briefly, 5 μL of the sample was injected into a reversed‐phase column (Acquity UPLC BEH C18, 2.1 × 100 mm, ID. 1.7 μm; Waters, Milford, MA, USA) held at 30°C. The elution was performed using solvent A (0.1% formic acid) and solvent B (acetonitrile) at a flow rate of 0.3 mL/min. The gradient profiles were as follows: 5% B (0–2 min), 5–95% B (2–22 min), 95% B (22–25 min), and 5% B (25–30 min). Tandem mass spectrometry (MS/MS) was conducted using an ion trap mass spectrometer with a heated electrospray ion source (HESI) in both positive and negative ionization modes (scan range m/z 70–1000). […] External standard curves for cinnamic acid derivatives were generated using eight concentrations of authentic standard solutions (1, 5, 10, 50, 100, 250, 500, and 1000 ng/mL).
(§3) Quantification of cinnamic acid derivatives in the plasma was performed using the Trace Finder software version 4.1 (Thermo Scientific). The plasma concentration versus time data for the analytes obtained from each human and rat were entered into a Microsoft Excel spreadsheet. The area under the plasma concentration–time curve (AUC) was calculated using the linear trapezoidal rule, extending to the last sampling point.

[2] = Animal study: plasma concentration and AUC of cinnamic acid derivatives after intragastric BGP with or without each herbal extract; assay type: in vivo, Wistar/ST rats; conditions: rats
Experimental: Wistar/ST rats (male, 7 weeks old) were purchased from Japan SLC (Shizuoka, Japan). […] The rats were quarantined and acclimatized under the above conditions for 1 week and divided into six groups (eight rats/group) according to their average body weight (240–260 g). Each test sample listed in Table 1 was dissolved in 10% propylene glycol (1 mL per rat) and administered intragastrically to the rats after an overnight fasting period with free access to water. […] The collected samples were centrifuged at 1500 g for 10 min at 4°C to separate the plasma and preserved at −80°C until further sample preparation.
as §1, §2, §3

[3] = BGP co-administered with turmeric extract

Structure (SMILES) | AUC ([1]; both sexes, human, oral, read-out: AUC) [ng·h/mL] | fold increase of AUC versus BGP administered alone [1] [fold] | change of plasma concentration versus BGP alone (in words) ([2]; BGP + turmeric extract, at 30 min and 3 h) | change of AUC versus BGP alone (in words) ([2]; BGP co-administered with gotu kola extract) | change of AUC versus BGP alone (in words) [2, 3] | AUC [1] [ng·h/mL] | fold increase of plasma concentration versus BGP alone ([2]; BGP + turmeric extract, 30 min after administration) [fold] | fold increase of plasma concentration versus BGP alone ([2]; BGP + turmeric extract, 3 h after administration) [fold] | fold increase of plasma concentration versus BGP alone ([2]; BGP + turmeric extract, 6 h after administration) [fold] | fold increase of AUC versus BGP administered alone [2, 3] [fold]
CC(C)=CCc1cc(C=CC(=O)O)cc(O)c1O [3,4‐dihydroxy‐5‐prenylcinnamic acid] | 34.5 ± 12.2 | 1.8 | significant increases or increasing trends | tended to increase | tended to increase |  |  |  |  | 
CC(C)=CCc1cc(/C=C/C(=O)O)cc(C/C=C(\C)CO)c1O [capillartemisin A] |  | 1.6 |  |  |  | 57.0 ± 16.5 | 2.2 | 1.7 | 3.0 | 1.7
